From patent US20260226071A1, “2, 4-DIANILINOPYRIMIDINE-BASED AURORA-A KINASE SELECTIVE DEGRADATION INDUCING COMPOUNDS” (UPPTHERA, INC., priority 2023, published 2026)

Experiments:
[1] = molecular target: T1, Aurora kinase A (AURKA) (Homo sapiens, UniProt O14965); assay: Luciferase assay for AURKA in HeLa LgBit (AURKA-HiBit KI) cell line; format: cell-based; conditions: HeLa LgBit (AURKA-HiBit KI) cells, measured after 12 hours
T1 construct: endogenous in cells; host or cells: HeLa LgBit (AURKA-HiBit KI), CRISPR/Cas9 knock-in at the endogenous AURKA locus
T1 sequence (O14965 1-403): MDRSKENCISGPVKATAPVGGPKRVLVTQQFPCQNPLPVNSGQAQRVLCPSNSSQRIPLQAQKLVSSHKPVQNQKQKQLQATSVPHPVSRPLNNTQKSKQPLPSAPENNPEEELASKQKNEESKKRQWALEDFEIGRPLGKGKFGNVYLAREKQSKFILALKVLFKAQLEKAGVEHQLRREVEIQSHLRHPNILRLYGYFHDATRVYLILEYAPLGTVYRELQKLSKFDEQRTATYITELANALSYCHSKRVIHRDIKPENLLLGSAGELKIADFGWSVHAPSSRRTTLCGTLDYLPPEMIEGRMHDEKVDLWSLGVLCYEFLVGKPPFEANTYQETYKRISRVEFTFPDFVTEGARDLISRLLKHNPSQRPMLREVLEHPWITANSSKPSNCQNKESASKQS
Method in brief: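 Test compounds (10 nM or 100 nM) added to AURKA-HiBit knock-in HeLa LgBit cells that had been pre-loaded with Endurazine for 2 h following an 18 h culture at 3×10^4 cells. Endogenous AURKA-HiBit level followed by luminescence (470-480 nm), measured after 12 h.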

[2] = system: NCI-H446 cell line; assay: Cell viability assay for NCI-H446 cell line; format: cell-based; conditions: Homo sapiens, NCI-H446, 120 h; H446 cells, 5 days culture, EZ-Cytox; read-out: IC50 value (Level)
Text: The NCI-H446 (hereafter H446) cell lines were provided from American Type Culture Collection (ATCC). For cell culture, RPMI medium 1640 (Gibco, Cat. No. 22400-089; Lot. No. 2522717), FBS (Gibco, Cat. No. 16000-044; Lot. No. 2716756P), Penicillin/Streptomycin (PS) (Gibco, Cat. No. 15140-122; Lot. No. 2585636), 75T cell culture flask (SPL, Cat. No. 70075), 96 well cell culture plate (SPL, Cat. No. 30096), PBS pH 7.4 (Gibco, Cat. No. 10010-023; Lot. No. 2561466), TrypLE™ Express (Gibco, Cat. No. 12605-010; Lot. No. 2492811), counting chamber (hematocytometer) (Hirschmann, Cat. No. 8100204) and 0.4% Trypan Blue solution (DYNEBIO, Cat. No. CBT3710; Lot. No. 20231017) were used. Cells were cultured in RPMI 1640 medium supplemented with 10% FBS and 1% PS and incubated at 37° C., 5% CO2 condition in CO2 incubator (ThermoScientific, Cat. No. 4111).
For experiment, the present compounds were fully dissolved in DMSO (Sigma-Aldrich Cat. No. D2438, Lot. No. RNBL7287.
In each well of 96-well cell culture plate, […] cells of H446 cell lines were seeded in 150 μl of total medium volume. After 24 hours of cell seeding, the present compounds were treated.
The present compounds were each diluted 3-folds from the highest concentration of 1000 nM to the lowest concentration of 0.15 nM. The compound was added to each well to make the total volume of […] and the cells were cultured for 5 days in CO2 incubator (Thermo Fisher Science, Cat. No. 4111).
Thereafter, 20 μl of EZ-Cytox (DOGEN, Cat. NO. EZ-3000, Lot. No. DLS2308) was added to each well and the cells were cultured for 4 hours at the same condition in CO2 incubator. After culture, the absorbance of the sample was measured by setting the wavelength of a plate reader (BMG Labtech, CLARIOstar Plus) to […]. The samples were shaked for 2 minutes in the plate reader before measurement.

SMILES | luminescence value (Level) ([1]; 10 nM compound) | luminescence value (Level) ([1]; 100 nM compound) | IC50 [2] [nM]
O=C1CCC(c2ccc(N3CCC(N4CCC5(CC4)CC(NC(=O)c4ccc(Nc6ncc(F)c(Nc7ccc(C(=O)Nc8ccccc8Cl)cc7)n6)cc4)C5)CC3)c(F)c2)C(=O)N1 (stereo not drawn) [Compound 21, N-(2-chlorophenyl)-4-((2-((4-((7-(1-(4-(2,6-dioxopiperidin-3-yl)-2-fluorophenyl)piperidin-4-yl)-7-azaspiro[3.5]nonan-2-yl)carbamoyl)phenyl)amino)-5-fluoropyrimidin-4-yl)amino)benzamide] | B (B is 0.3 to 0.5) | A (A is <0.2) | < 50
O=C1CCC(c2ccc(N3CCC(N4CCC5(CC4)CC(NC(=O)Cc4ccc(Nc6ncc(F)c(Nc7ccc(C(=O)Nc8ccccc8Cl)cc7)n6)cc4)C5)CC3)c(F)c2)C(=O)N1 (stereo not drawn) [Compound 22, N-(2-chlorophenyl)-4-((2-((4-(2-((7-(1-(4-(2,6-dioxopiperidin-3-yl)-2-fluorophenyl)piperidin-4-yl)-7-azaspiro[3.5]nonan-2-yl)amino)-2-oxoethyl)phenyl)amino)-5-fluoropyrimidin-4-yl)amino)benzamide] | A (A is <0.3) | A (A is <0.2) | 100 to 150
O=C1CCC(c2ccc(N3CCC(CN4CCC5(CC4)CC(NC(=O)c4ccc(Nc6ncc(F)c(Nc7ccc(C(=O)Nc8ccccc8Cl)cc7)n6)cc4)C5)CC3)c(F)c2)C(=O)N1 (stereo not drawn) [Compound 23, N-(2-chlorophenyl)-4-((2-((4-((7-((1-(4-(2,6-dioxopiperidin-3-yl)-2-fluorophenyl)piperidin-4-yl)methyl)-7-azaspiro[3.5]nonan-2-yl)carbamoyl)phenyl)amino)-5-fluoropyrimidin-4-yl)amino)benzamide] | B (B is 0.3 to 0.5) | A (A is <0.2) | < 50
O=C1CCC(Nc2ccc(N3CCC(CN4CCN(C(=O)Cc5ccc(Nc6ncc(F)c(Nc7ccc(C(=O)Nc8ccccc8Cl)cc7)n6)cc5)CC4)CC3)cc2)C(=O)N1 (stereo not drawn) [Compound 24, N-(2-chlorophenyl)-4-((2-((4-(2-(4-((1-(4-((2,6-dioxopiperidin-3-yl)amino)phenyl)piperidin-4-yl)methyl)piperazin-1-yl)-2-oxoethyl)phenyl)amino)-5-fluoropyrimidin-4-yl)amino)benzamide] | B (B is 0.3 to 0.5) | A (A is <0.2) | < 50
O=C1CCC(Nc2ccc(N3CCN(C[C@H]4CC[C@H](NC(=O)c5ccc(Nc6ncc(F)c(Nc7ccc(C(=O)Nc8ccccc8Cl)cc7)n6)cc5)CC4)CC3)cc2)C(=O)N1 (stereo partly drawn) [Compound 26, N-(2-chlorophenyl)-4-((2-((4-(((1r,4r)-4-((4-(4-((2,6-dioxopiperidin-3-yl)amino)phenyl)piperazin-1-yl)methyl)cyclohexyl)carbamoyl)phenyl)amino)-5-fluoropyrimidin-4-yl)amino)benzamide] | B (B is 0.3 to 0.5) | B (B is 0.2 to 0.4) | < 50
O=C1CCC(Nc2ccc(N3CCN(CC4CC45CCN(C(=O)c4ccc(Nc6ncc(F)c(Nc7ccc(C(=O)Nc8ccccc8Cl)cc7)n6)cc4)CC5)CC3)cc2)C(=O)N1 (stereo not drawn) [Compound 30, N-(2-chlorophenyl)-4-((2-((4-(1-((4-(4-((2,6-dioxopiperidin-3-yl)amino)phenyl)piperazin-1-yl)methyl)-6-azaspiro[2.5]octane-6-carbonyl)phenyl)amino)-5-fluoropyrimidin-4-yl)amino)benzamide] | B (B is 0.3 to 0.5) | A (A is <0.2) | < 50
O=C1CCC(Nc2ccc(N3CCC(CN4CCC5(CC4)CCN(C(=O)c4ccc(Nc6ncc(F)c(Nc7ccc(C(=O)Nc8ccccc8Cl)cc7)n6)cc4)C5)CC3)cc2)C(=O)N1 (stereo not drawn) [Compound 33, N-(2-chlorophenyl)-4-[[2-[4-[8-[[1-[4-[(2,6-dioxo-3-piperidyl)amino]phenyl]-4-piperidyl]methyl]-2,8-diazaspiro[4.5]decane-2-carbonyl]anilino]-5-fluoro-pyrimidin-4-yl]amino]benzamide] | B (B is 0.3 to 0.5) | A (A is <0.2) | 100 to 150
O=C1CCC(Nc2ccc(N3CC(CN4CC5CN(C(=O)c6ccc(Nc7ncc(F)c(Nc8ccc(C(=O)Nc9ccccc9Cl)cc8)n7)cc6)CC5C4)C3)cc2)C(=O)N1 (stereo not drawn) [Compound 35, N-(2-chlorophenyl)-4-((2-((4-(5-((1-(4-((2,6-dioxopiperidin-3-yl)amino)phenyl)azetidin-3-yl)methyl)octahydropyrrolo[3,4-c]pyrrole-2-carbonyl)phenyl)amino)-5-fluoropyrimidin-4-yl)amino)benzamide] | B (B is 0.3 to 0.5) | B (B is 0.2 to 0.4) | 150 to 200
O=C1CCC(Nc2ccc(N3CC(N4CCc5cc(NC(=O)c6ccc(Nc7ncc(F)c(Nc8ccc(C(=O)Nc9ccccc9Cl)cc8)n7)cc6)ccc5C4)C3)cc2)C(=O)N1 (stereo not drawn) [Compound 36, N-(2-chlorophenyl)-4-((2-((4-((2-(1-(4-((2,6-dioxopiperidin-3-yl)amino)phenyl)azetidin-3-yl)-1,2,3,4-tetrahydroisoquinolin-6-yl)carbamoyl)phenyl)amino)-5-fluoropyrimidin-4-yl)amino)benzamide] | B (B is 0.3 to 0.5) | A (A is <0.2) | 100 to 150
CN(CC1CCN(c2ccc(NC3CCC(=O)NC3=O)cc2)CC1)C[C@H]1CC[C@H](NC(=O)c2ccc(Nc3ncc(F)c(Nc4ccc(C(=O)Nc5ccccc5Cl)cc4)n3)cc2)CC1 (stereo partly drawn) [Compound 38, N-(2-chlorophenyl)-4-[[2-[4-[[4-[[[1-[4-[(2,6-dioxo-3-piperidyl)amino]phenyl]-4-piperidyl]methyl-methyl-amino]methyl]cyclohexyl]carbamoyl]anilino]-5-fluoro-pyrimidin-4-yl]amino]benzamide] | B (B is 0.3 to 0.5) | B (B is 0.2 to 0.4) | > 200
O=C1CCC(Nc2ccc(N3CCN(CCC4CCN(NC(=O)c5ccc(Nc6ncc(F)c(Nc7ccc(C(=O)Nc8ccccc8Cl)cc7)n6)cc5)CC4)CC3)cc2)C(=O)N1 (stereo not drawn) [Compound 43, N-(2-chlorophenyl)-4-((2-((4-((4-(2-(4-(4-((2,6-dioxopiperidin-3-yl)amino)phenyl)piperazin-1-yl)ethyl)piperidin-1-yl)carbamoyl)phenyl)amino)-5-fluoropyrimidin-4-yl)amino)benzamide] | A (A is <0.3) | A (A is <0.2) | < 50
CN(c1ccc(N2CCC(CN3CCN(C(=O)Cc4ccc(Nc5ncc(F)c(Nc6ccc(C(=O)Nc7ccccc7Cl)cc6)n5)cc4)CC3)CC2)cc1)C1CCC(=O)NC1=O (stereo not drawn) [Compound 44, N-(2-chlorophenyl)-4-((2-((4-(2-(4-((1-(4-((2,6-dioxopiperidin-3-yl)(methyl)amino)phenyl)piperidin-4-yl)methyl)piperazin-1-yl)-2-oxoethyl)phenyl)amino)-5-fluoropyrimidin-4-yl)amino)benzamide] | B (B is 0.3 to 0.5) | A (A is <0.2) | 100 to 150
